Reference: patent publication US9890175B2, “Taxane compound, and preparation method and use thereof” (JIANGSU TASLY DIYI PHARMACEUTICAL CO., LTD., priority 2013, dated 2018)
Like-named read-outs stand apart in the source and are kept apart here.

What was measured:
[1] = test system: breast cancer cell line MCF-7; test: IC50 on breast cancer cell line MCF-7; assay type: cell-based; conditions: Homo sapiens
Procedure: From the activity evaluation data of the above-mentioned preliminary screen, it can be seen that the series of taxanes derivatives synthesized in the present invention have activity. Afterward, the compounds are investigated to examine their IC50 values on breast cancer cell line MCF-7. […] Experiments for each compound were independently repeated for three times and multiple holes were used in each experiment. The exposure time of drugs was 72 hours.

[2] = reported value; cited from earlier work
Caco-2 cell monolayer [3] = conditions: human
Excerpt: (§3) Human-derived colorectal adenocarcinoma cell line Caco-2 cell monolayer model was used to study the bidirectional transport of the target compounds from the apical (AP) side to the basolateral (BL) side and from BL side to AP side. HPLC was used for quantitative analysis to calculate transport parameters, apparent permeability coefficient (Papp) and the efflux ratio.

[4] = Caco-2 cell monolayer membrane transport assay (Papp and recovery); assay type: in vitro ADME; conditions: human
Excerpt: Caco-2 Cell Monolayer Membrane Transport Assay
as §3

LNCaP prostate cancer = test: MTT proliferation inhibition, LNCaP; assay type: cell-based; conditions: Homo sapiens, read-out: Proliferation inhibition rate, LNCaP Prostate cancer
Excerpt: (§1) 1. Cytotoxicity Assay Using Human Tumor Cell Lines
(§2) Paclitaxel was used as the positive drug.

A2780 ovarian cancer = test: MTT proliferation inhibition, A2780; assay type: cell-based; conditions: Homo sapiens, A2780, read-out: Proliferation inhibition rate, A2780 Ovarian cancer
Excerpt: as §1, §2

K562 leukemia = test: MTT proliferation inhibition, K562; assay type: cell-based; conditions: Homo sapiens, K562, read-out: Proliferation inhibition rate, K562 Leukemia
Excerpt: as §1, §2

[5] = test system: A549 non-small cell lung cancer; test: MTT proliferation inhibition, A549; assay type: cell-based; conditions: Homo sapiens, A549, read-out: Proliferation inhibition rate, A549 Non-small cell lung cancer
Excerpt: as §1, §2

BGC-823 gastric cancer = test: MTT proliferation inhibition, BGC-823; assay type: cell-based; conditions: Homo sapiens, BGC-823, read-out: Proliferation inhibition rate, BGC-823 Gastric cancer
Excerpt: as §1, §2

HL-60 leukemia = test: MTT proliferation inhibition, HL-60; assay type: cell-based; conditions: Homo sapiens, HL-60, read-out: Proliferation inhibition rate, HL60 Leukemia
Excerpt: as §1, §2

[6] = test system: MCF-7 breast cancer cells; test: MTT proliferation inhibition, MCF-7; assay type: cell-based; conditions: Homo sapiens, MCF7, read-out: Proliferation inhibition rate, MCF-7 Breast cancer
Excerpt: as §1, §2

LN-18 = test: MTT proliferation inhibition, LN-18; assay type: cell-based; conditions: Homo sapiens, LN-18, read-out: Proliferation inhibition rate, LN-18 Gastric canser
Excerpt: as §1, §2

Du145 prostate cancer = test: MTT proliferation inhibition, Du145; assay type: cell-based; conditions: Homo sapiens, DU-145, read-out: Proliferation inhibition rate, DU145 Prostate cancer
Excerpt: as §1, §2

B16 melanoma = test: MTT proliferation inhibition, B16; assay type: cell-based; conditions: B16, read-out: Proliferation inhibition rate, B16 Melanoma
Excerpt: as §1, §2

Hela cervical cancer = test: MTT proliferation inhibition, HeLa; assay type: cell-based; conditions: Homo sapiens, read-out: Proliferation inhibition rate, HeLa Uterin cancer
Excerpt: as §1, §2

HT-29 colon cancer = test: MTT proliferation inhibition, HT-29; assay type: cell-based; conditions: Homo sapiens, HT-29, read-out: Proliferation inhibition rate, HT29 Colon cancer
Excerpt: as §1, §2

A375 melanoma = test: MTT proliferation inhibition, A375; assay type: cell-based; conditions: Homo sapiens, A-375, read-out: Proliferation inhibition rate, A375 Melanoma
Excerpt: as §1, §2

Caco-2 cell monolayer [7] = test: Caco-2 bidirectional transport, efflux ratio; conditions: Caco-2 cell line (21 days)
Excerpt: as §3

[8] = test system: NCI-H460 non-small cell lung cancer; test: MTT proliferation inhibition, NCI-H460; assay type: cell-based; conditions: Homo sapiens, NCI-H460, read-out: Proliferation inhibition rate, NCI-H460 Non-small cell lung cancer
Excerpt: as §1, §2

[9] = test system: MDA-MB-436 breast cancer cells; test: MTT proliferation inhibition, MDA-MB-436; assay type: cell-based; conditions: Homo sapiens, MDA-MB-436, read-out: Proliferation inhibition rate, MDA-MB-436 Breast cancer
Excerpt: as §1, §2

HCT 116 colon cancer = test: MTT proliferation inhibition, HCT 116; assay type: cell-based; conditions: Homo sapiens, HCT-116, read-out: Proliferation inhibition rate, HCT 116 Colon cancer
Excerpt: as §1, §2

[10] = Caco-2 bidirectional transport, efflux ratio; conditions: human, Caco-2
Excerpt: as §3

[11] = MCF7, 72 h, read-out: MCF-7 (IC50, nM)
[12] = Caco-2, Caco-2, A-B, Mean, read-out: Papp A-B, Mean
[13] = Caco-2, Caco-2, A-B, Mean, read-out: Recovery rate in mass, Mean
[14] = Caco-2, Caco-2, A-B, Sample-01, read-out: Papp A-B, Sample-01
[15] = Caco-2, Caco-2, A-B, Sample-01, read-out: Recovery rate in mass, Sample-01
[16] = Caco-2, Caco-2, A-B, Sample-02, read-out: Papp A-B, Sample-02
[17] = Caco-2, Caco-2, A-B, Sample-02, read-out: Recovery rate in mass, Sample-02

| Structure (SMILES) | IC50 [1, 11] [nM] | inhibition at 1 µM (LNCaP prostate cancer) [%] | inhibition at 1 µM (A2780 ovarian cancer) [%] | inhibition at 1 µM (K562 leukemia) [%] | inhibition at 1 µM [5] [%] | inhibition at 1 µM (BGC-823 gastric cancer) [%] | inhibition at 1 µM (HL-60 leukemia) [%] | inhibition at 1 µM [6] [%] | inhibition at 1 µM (LN-18) [%] | inhibition at 1 µM (Du145 prostate cancer) [%] | inhibition at 1 µM (B16 melanoma) [%] | inhibition at 1 µM (Hela cervical cancer) [%] | Papp A→B [4, 12] [×10⁻⁶ cm/s] | recovery [4, 13] [%] | Papp A→B [4, 14] [×10⁻⁶ cm/s] | recovery [4, 15] [%] | Papp A→B [4, 16] [×10⁻⁶ cm/s] | recovery [4, 17] [%] | inhibition at 1 µM (HT-29 colon cancer) [%] | inhibition at 1 µM (A375 melanoma) [%] | further results |
| --- | --- | --- | --- | --- | --- | --- | --- | --- | --- | --- | --- | --- | --- | --- | --- | --- | --- | --- | --- | --- | --- |
| CC(=O)O[C@H]1C(=O)[C@@]2(C)[C@H]([C@H](OC(=O)c3ccccc3)[C@]3(O)C[C@H](OC(=O)[C@H](O)[C@@H](NC(=O)c4ccccc4)c4ccccc4)C(C)=C1C3(C)C)[C@]1(OC(C)=O)CO[C@@H]1C[C@@H]2O [Paclitaxel, reference compound] |  |  |  |  |  |  |  |  |  |  |  |  |  |  |  |  |  |  |  |  | IC50 ([1]; MCF7, 72 hours exposure, mean±SD of three experiments, read-out: MCF-7 (IC50)): 7.05 nM; reported absolute oral bioavailability [2]: less than 6%; Papp A-B (Caco-2 cell monolayer [3]): 0.97 10^−6 cm/s; Papp B-A (Caco-2 cell monolayer [3]): 33.39 10^−6 cm/s; efflux ratio (Caco-2 cell monolayer [3]): 34.38; Papp A→B ([4]; Caco-2, Papp A-B, Mean): 0.97 ×10⁻⁶ cm/s; Papp A→B ([4]; Caco-2, Papp A-B, Sample-01): 1.02 ×10⁻⁶ cm/s; Papp A→B ([4]; Caco-2, Papp A-B, Sample-02): 0.93 ×10⁻⁶ cm/s; recovery ([4]; Caco-2, Recovery rate in mass, Mean): 101%; recovery ([4]; Caco-2, Recovery rate in mass, Sample-01): 94.6%; recovery ([4]; Caco-2, Recovery rate in mass, Sample-02): 107% |
| CO[C@H]1C(=O)[C@]2(C)[C@@H](OC)C[C@H]3OC[C@@]3(OC(C)=O)[C@H]2[C@H](OC(=O)c2ccccc2)[C@]23OC(=O)O[C@H]2[C@H](OC(=O)[C@H](O)[C@@H](NC(=O)OC(C)(C)C)c2ccccc2)C(C)=C1C3(C)C [PCMI-01] | 2.1 ± 0.08 | 80.7 | 96.7 | 92.8 | 66.9 | 93.1 | 96.6 | 96 | 92.8 | 87.8 | 78.1 | 101 | 4.17 | 54.7 | 4.47 | 48.2 | 3.87 | 61.2 | 89.4 | 90.8 | Papp A-B (Caco-2 cell monolayer [7]; A-B): 2.83 10^−6 cm/s; Papp B-A (Caco-2 cell monolayer [7]; B-A): 18.20 10^−6 cm/s; efflux ratio (Caco-2 cell monolayer [7]; Papp B-A/Papp A-B): 6.42; inhibition at 1 µM [8]: 87.9%; inhibition at 1 µM [9]: 81.5%; inhibition at 1 µM (HCT 116 colon cancer): 59.7% |
| CO[C@H]1C(=O)[C@]2(C)[C@@H](OC(=O)N(C)C)C[C@H]3OC[C@@]3(OC(C)=O)[C@H]2[C@H](OC(=O)c2ccccc2)[C@]23OC(=O)O[C@H]2[C@H](OC(=O)[C@H](O)[C@@H](NC(=O)OC(C)(C)C)c2ccccc2)C(C)=C1C3(C)C [PCMI-14] | 15.4 ± 0.16 | 85.3 | 94.2 | 92.7 | 76.2 | 95.8 | 97.5 | 88.5 | 93.5 | 89.8 | 80.3 | 99.9 | 3.04 | 91.3 | 3.21 | 95 | 2.87 | 87.6 | 87.3 | 95.3 | Papp A→B [10]: 1.98 ×10⁻⁶ cm/s; Papp B→A [10]: 19 ×10⁻⁶ cm/s; efflux ratio [10]: 9.58; inhibition at 1 µM [8]: 86.9%; inhibition at 1 µM [9]: 80.2%; inhibition at 1 µM (HCT 116 colon cancer): 65.5% |
